Assay results: US20240344145A1, “PHARMACOGENOMICS SCORE TO MAKE DECISIONS ON THERAPY AUGMENTATION IN AML” (University of Florida Research Foundation, Incorporated, priority 2021, published 2024)

Tested on: ara-C metabolic pathway genes
Assay: Association of ara-C pathway SNP genotypes with MRD1, EFS and OS in AML02 (logistic regression and Cox models; also within LDAC and HDAC arms)
Design: species or system human
Conditions: within arm of AML02
Source text: Genomic DNA from patients enrolled in the multi-site St. Jude AML02 trial was genotyped for 155 SNPs in 16 genes of relevance to ara-C pharmacology using sequenom iPlex platform that uses MALDI-TOF based chemistry at University of Minnesota, Biomedical Genomics Center. SNPs were selected based on previously reported studies. For SNPs lacking literature on genetic variation, SNPs were selected to capture LD blocks (European and African ancestry) on a gene. Of 155 SNPs, 1 SNP was excluded due to low call rate (<90%), 47 SNPs were excluded due to minimum allele frequency of less than 5%, 11 SNPs were excluded due to high LD (r^2>0.9) with other SNPs; two SNPs were excluded because of deviation from Hardy-Weinberg equilibrium. Genotype for the COG-AAML0531 cohort for the selected SNPs was obtained using sequenom platform or TaqMan genotyping assays, and for a few SNPs was extracted from the data available on Illumina 2.5 Omni array. Genotype calls from multiple platforms were confirmed across multiple samples randomly collected from the cohort.
SNP genotype groups in three different modes of inheritance (additive, dominant, and recessive) were tested for association with MRD1 using logistic regression models. Odds ratio (OR) and 95% confidence interval (CI) were calculated for each test. SNPs with association P-value<0.05 were considered significant. Cox-proportional hazard models were used to evaluate association of genotype groups with EFS or OS. Hazard ratio (HR) and 95% CI were calculated for each test. p-value<0.05 was considered statistically significant. Given initial risk group assignments are well-established prognostic factors associated with outcome, outcome association analysis of SNPs with and without adjusting for risk group was also performed to identify SNPs that are associated with outcome independent of risk group.
SNPs with p<0.15 in risk-adjusted univariate evaluation with clinical endpoints (MRD1, EFS, and OS) were tested for all possible combinations with a maximum of three SNPs per model in multivariable logistic regression models for association with MRD1 and Cox-proportional hazard models for association with EFS and OS. Analysis for up to 3 SNP combinations was restricted due to computational challenges as increasing the maximum number of SNPs per model drastically increases the number of models as 1000 permutations were run for each model. Models were ordered according to their Bayesian Information Criterion (BIC) and weight in favor of each model. One thousand permutation tests were performed for each model to determine statistical significance. The six unique SNPs from the most significant models for EFS and MRD1 were included in the development of the ACS10 score as described in the results section.
The multicenter AML02 clinical trial randomly assigned subjects to receive low dose ara-C (LDAC: 100 mg/m^2; n=91 patients) or high dose ara-C(HDAC: 3 g/m^2; n=75 patients) in combination with daunorubicin and etoposide as the first course of chemotherapy as described above in patient cohort section. Thus, the association of SNPs with outcome within each arm separately was also explored (Table 5).

[1] = rs4917384 (NT5C2, WT C, VAR T), MOI D
[2] = rs4980345 (SLC28A1, WT G, VAR A), MOI A
[3] = rs6552622 (DCTD, WT C, VAR G), MOI D
[4] = rs6742272 (RRM2, WT C, VAR G), MOI A
[5] = rs6834938 (DCTD, WT C, VAR T), MOI R
[6] = rs6946062 (NT5C3, WT T, VAR C), MOI D
[7] = rs7533657 (CTPS1, WT C, VAR T), MOI R
[8] = rs7543016 (CMPK1, WT C, VAR G), MOI R
[9] = rs7776847 (NT5C3, WT G, VAR A), MOI A
[10] = rs7874528 (SLC28A3, WT G, VAR T), MOI D
[11] = rs10252880 (NT5C3, WT G, VAR C), MOI A
[12] = rs10767827 (RRM1, WT G, VAR T), MOI D
[13] = rs10786736 (NT5C2, WT G, VAR C), MOI D
[14] = rs10916819 (CDA, WT A, VAR G), MOI D
[15] = rs11140525 (SLC28A3, WT G, VAR A), MOI A
[16] = rs11191558 (NT5C2, WT G, VAR A), MOI D
[17] = rs11737887 (DCTD, WT T, VAR C), MOI A
[18] = rs12554292 (SLC28A3, WT C, VAR T), MOI D
[19] = rs12806698 (RRM1, WT C, VAR A), MOI D
[20] = rs17103168 (CMPK1, WT A, VAR G), MOI D

## Nc1ccn([C@@H]2O[C@H](CO)[C@@H](O)[C@@H]2O)c(=O)n1 [HDAC, cytarabine]
[1]
  EFS HR (95% CI): 0.74 (0.51-1.08)
  MRD1 OR (95% CI): 0.73 (0.44-1.2)
  OS HR (95% CI): 0.61 (0.38-0.98)
[2]
  EFS HR (95% CI): 0.94 (0.47-1.87)
  MRD1 OR (95% CI): 0.55 (0.19-1.62)
  OS HR (95% CI): 1.3 (0.64-2.64)
[3]
  EFS HR (95% CI): 1.71 (1.15-2.53)
  MRD1 OR (95% CI): 1.06 (0.56-1.99)
  OS HR (95% CI): 1.84 (1.19-2.85)
[4]
  EFS HR (95% CI): 1.09 (0.68-1.76)
  MRD1 OR (95% CI): 0.86 (0.44-1.68)
  OS HR (95% CI): 1.09 (0.62-1.92)
[5]
  EFS HR (95% CI): 0.7 (0.34-1.44)
  MRD1 OR (95% CI): 1.08 (0.49-2.38)
  OS HR (95% CI): 0.86 (0.42-1.79)
[6]
  EFS HR (95% CI): 1.13 (0.78-1.63)
  MRD1 OR (95% CI): 0.96 (0.59-1.56)
  OS HR (95% CI): 1.47 (0.92-2.35)
[7]
  EFS HR (95% CI): 1.76 (1.14-2.7)
  MRD1 OR (95% CI): 1.31 (0.67-2.57)
  OS HR (95% CI): 1.97 (1.22-3.18)
[8]
  EFS HR (95% CI): 0.69 (0.38-1.25)
  MRD1 OR (95% CI): 1.29 (0.69-2.42)
  OS HR (95% CI): 0.65 (0.32-1.35)
[9]
  EFS HR (95% CI): 0.83 (0.46-1.5)
  MRD1 OR (95% CI): 1.23 (0.57-2.65)
  OS HR (95% CI): 0.71 (0.34-1.47)
[10]
  EFS HR (95% CI): 1.24 (0.85-1.81)
  MRD1 OR (95% CI): 0.91 (0.52-1.61)
  OS HR (95% CI): 1.41 (0.91-2.17)
[11]
  EFS HR (95% CI): 0.99 (0.62-1.57)
  MRD1 OR (95% CI): 1.18 (0.62-2.27)
  OS HR (95% CI): 0.74 (0.42-1.32)
[12]
  EFS HR (95% CI): 1.03 (0.71-1.49)
  MRD1 OR (95% CI): 0.55 (0.31-0.97)
  OS HR (95% CI): 1.04 (0.68-1.61)
[13]
  EFS HR (95% CI): 0.92 (0.6-1.4)
  MRD1 OR (95% CI): 0.9 (0.51-1.59)
  OS HR (95% CI): 0.92 (0.56-1.52)
[14]
  EFS HR (95% CI): 1.08 (0.75-1.56)
  MRD1 OR (95% CI): 1.87 (1.09-3.21)
  OS HR (95% CI): 1.33 (0.83-2.12)
[15]
  EFS HR (95% CI): 0.73 (0.44-1.21)
  MRD1 OR (95% CI): 0.44 (0.21-0.94)
  OS HR (95% CI): 0.87 (0.49-1.56)
[16]
  EFS HR (95% CI): 0.87 (0.56-1.37)
  MRD1 OR (95% CI): 0.93 (0.53-1.66)
  OS HR (95% CI): 0.84 (0.48-1.44)
[17]
  EFS HR (95% CI): 0.96 (0.49-1.89)
  MRD1 OR (95% CI): 2.74 (1.06-7.06)
  OS HR (95% CI): 0.95 (0.43-2.12)
[18]
  EFS HR (95% CI): 1.15 (0.75-1.76)
  MRD1 OR (95% CI): 1.92 (1.04-3.56)
  OS HR (95% CI): 1.4 (0.87-2.24)
[19]
  EFS HR (95% CI): 0.64 (0.43-0.96)
  MRD1 OR (95% CI): 0.89 (0.54-1.45)
  OS HR (95% CI): 0.62 (0.37-1.02)
[20]
  EFS HR (95% CI): 1.05 (0.73-1.51)
  MRD1 OR (95% CI): 0.62 (0.37-1.04)
  OS HR (95% CI): 0.9 (0.58-1.41)
